Experimental data: patent publication US11407719B2, “Anti-inflammatory agents” (Resverlogix Corp., priority 2009, dated 2022)

What was measured:
hIL-6 mRNA = assay: Quantification of hIL-6 mRNA; format: cell-based, human; design: key: Active: an active compound is one that causes a ≥20% inhibition in IL-6 mRNA at a concentration less than or equal to 10 μM; settings: IL-6 mRNA by real-time PCR; differentiated U937 cells, 1 h pretreatment, lipopolysaccharide stimulation 3 h; concentration ≤10 μM
Method in brief: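 U937 cells, differentiated for 3 days, were pretreated with compound for 1 h and then stimulated with E. coli LPS for 3 h at 37 °C. IL-6 mRNA was quantified by one-step qRT-PCR, with Ct normalized to an internal control, and fold induction was expressed relative to control.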

VCAM-1 mRNA = assay: Quantification of hVCAM mRNA; format: cell-based, human; design: key: Active: an active compound is one that causes a ≥20% inhibition in VCAM-1 mRNA at a concentration less than or equal to 10 μM; -1 mRNA at a concentration less than or equal to 10 μM; settings: VCAM-1 mRNA by real-time PCR; HUVECs, 1 h pretreatment, tumor necrosis factor-α stimulation 24 h; concentration ≤10 μM
Description: In this example, […] in tissue culture cells was quantitated to measure the transcriptional inhibition of hVCAM when treated with a compound of the invention.
Human umbilical vein endothelial cells (HUVECs) were plated in a 96-well plate (4.0×10^3 cells/well) in 100 μL EGM media and incubated for 24 h prior to the addition of the compound of interest. The cells were pretreated for 1 h with the test compound prior to stimulation with tumor necrosis factor-α. The cells were incubated for an additional 24 h before the cells were harvested. At time of harvest, the spent media was removed from the HUVECs and rinsed in 200 μL PBS. Cell lysis solution (70 μL) was then added the cells in each well and incubated for ˜5-10 min at room temperature, to allow for complete cell lysis and detachment. mRNA was then prepared using the “mRNA Catcher PLUS plate” (Invitrogen), according to the protocol supplied. After the last wash, as much wash buffer as possible was aspirated without allowing the wells to dry. Elution buffer (E3, 70 μL) was then added to each well. mRNA was then eluted by incubating the mRNA Catcher PLUS plate with elution buffer for 5 min at 68° C. and then immediately placing the plate on ice.
The eluted mRNA so isolated was then used in a one-step quantitative real-time PCR reaction, using components of the Ultra Sense Kit together with Applied Biosystems primer-probe mixes. Real-time PCR data was analyzed, normalizing the Ct values for hVCAM to an internal control, prior to determining the fold induction of each unknown sample, relative to the control.

With `COc1cc(OCCN2CCCC2)c2c(=O)[nH]c(-c3cc(C)nc(C)c3)nc2c1` [2-(2,6-Dimethylpyridin-4-yl)-7-methoxy-5-(2-(pyrrolidin-1-yl)ethoxy)quinazolin-4(3H)-one] as the molecule, how does the “Inhibition of IL-6 expression” value (hIL-6 mRNA) read?
Its value is “Active”.

What about the “Inhibition of VCAM-1 expression” value (VCAM-1 mRNA) of the same molecule?
Its value is “Active”.

And the melting point?
Its melting point is 190 to 191 °C.

For `COc1cc(OC)c2c(=O)[nH]c(-c3cc(C)c(OCCN4CCCC4)c(C)c3)nc2n1` [2-(3,5-Dimethyl-4-(2-(pyrrolidin-1-yl)ethoxy)phenyl)-5,7-dimethoxypyrido[2,3-d]pyrimidin-4(3H)-one], which “Inhibition of IL-6 expression” value (hIL-6 mRNA) is on record?
Its value is “Active”.

And the “Inhibition of VCAM-1 expression” value (VCAM-1 mRNA)?
Its value is “Active”.

What about the melting point of the same molecule?
Its melting point is 228 to 230 °C.

For `COCCOc1cc(OC)c2c(=O)[nH]c(-c3cc(C)nc(C)c3)nc2c1` [2-(2,6-Dimethylpyridin-4-yl)-5-methoxy-7-(2-methoxyethoxy)quinazolin-4(3H)-one], which “Inhibition of IL-6 expression” value (hIL-6 mRNA) is on record?
The value was “Active”.

And the melting point?
Its melting point is 228.8 to 230.4 °C.

For `COc1cc(OC)c2c(=O)[nH]c(-c3ccc(OCCN4CCCC4)c(C)c3)nc2c1` [5,7-Dimethoxy-2-(3-methyl-4-(2-(pyrrolidin-1-yl)ethoxy)phenyl)quinazolin-4(3H)-one], which “Inhibition of IL-6 expression” value (hIL-6 mRNA) is on record?
The value was “Active”.

And the “Inhibition of VCAM-1 expression” value (VCAM-1 mRNA)?
Its value is “Active”.

What about the melting point of the same molecule?
The melting point was 230 to 231 °C.

Which “Inhibition of IL-6 expression” value (hIL-6 mRNA) does the source give for `Cc1cc(-c2nc3c(Cl)cccc3c(=O)[nH]2)cc(C)c1OCCN1CCCC1` [8-Chloro-2-(3,5-dimethyl-4-(2-(pyrrolidin-1-yl)ethoxy)phenyl)quinazolin-4(3H)-one] here?
The value was “Active”.

What about the melting point of the same molecule?
Its melting point is 216 to 217 °C.

Which results are given for `Cc1cc(-c2nc3ccc(CN4CCOCC4)cc3c(=O)[nH]2)ccn1` [2-(2-methylpyridin-4-yl)-6-(morpholinomethyl)quinazolin-4(3H)-one]?
Inhibition of IL-6 expression (hIL-6 mRNA): Active; Inhibition of VCAM-1 expression (VCAM-1 mRNA): Inactive; melting point: 267 to 268 °C

Which results are given for `COc1cc(OCCOc2ccccc2)c2c(=O)[nH]c(-c3cc(C)nc(C)c3)nc2c1` [2-(2,6-Dimethylpyridin-4-yl)-7-methoxy-5-(2-phenoxyethoxy)quinazolin-4(3H)-one]?
Inhibition of IL-6 expression (hIL-6 mRNA): Active; Inhibition of VCAM-1 expression (VCAM-1 mRNA): Active; melting point: 172.3 to 173.2 °C

With `COc1cc(OC)c2c(=O)[nH]c(-c3ccc(Cc4nnn[nH]4)cc3)nc2c1` [2-(4-((1H-Tetrazol-5-yl)methyl)phenyl)-5,7-dimethoxyquinazolin-4(3H)-one] as the molecule, how does the “Inhibition of IL-6 expression” value (hIL-6 mRNA) read?
The value was “Active”.

And the melting point?
Its melting point is 295 to 296 °C.

Which results are given for `COc1cc(OC)c2c(=O)[nH]c(-c3ccc(OCCN4CCCC4)cc3)nc2c1` [5,7-Dimethoxy-2-(4-(2-(pyrrolidin-1-yl)ethoxy)phenyl)quinazolin-4(3H)-one]?
Inhibition of IL-6 expression (hIL-6 mRNA): Active; melting point: 226 to 227 °C

Which results are given for `COCCOc1cc(OC)c2c(=O)[nH]c(-c3ccc(N4C[C@@H](C)N(C(C)=O)[C@@H](C)C4)cc3)nc2c1` [2-(4-((3R,5S)-4-Acetyl-3,5-dimethylpiperazin-1-yl)phenyl)-5-methoxy-7-(2-methoxyethoxy)quinazolin-4(3H)-one]?
Inhibition of IL-6 expression (hIL-6 mRNA): Active; melting point: 225 to 227 °C

Which results are given for `Cc1cc(-c2nc3ccc(CN4CCN(C)CC4)cc3c(=O)[nH]2)cc(C)n1` [2-(2,6-Dimethylpyridin-4-yl)-6-((4-methylpiperazin-1-yl)methyl)quinazolin-4(3H)-one]?
Inhibition of IL-6 expression (hIL-6 mRNA): Active; melting point: 229 to 230 °C

What does the source list for `COc1cc(OC)c2c(=O)[nH]c(-c3cc(C)nc(C)c3)nc2c1` [2-(2,6-Dimethylpyridin-4-yl)-5,7-dimethoxyquinazolin-4(3H)-one]?
Inhibition of IL-6 expression (hIL-6 mRNA): Active; melting point: 291 to 292 °C

With `COc1cc(OC)c2c(=O)n(CCCN3CCCC3)c(-c3cc(C)c(OCCCN4CCCC4)c(C)c3)nc2c1` [2-(3,5-Dimethyl-4-(3-(pyrrolidin-1-yl)propoxy)phenyl)-5,7-dimethoxy-3-(3-(pyrrolidin-1-yl)propyl)quinazolin-4(3H)-one] as the molecule, how does the “Inhibition of IL-6 expression” value (hIL-6 mRNA) read?
Its value is “Active”.

What about the melting point of the same molecule?
The melting point was 109 to 111 °C.

With `Cc1cc(C)c2c(=O)[nH]c(-c3cc(C)c(OCCN4CCCC4)c(C)c3)nc2c1` [2-(3,5-Dimethyl-4-(2-(pyrrolidin-1-yl)ethoxy)phenyl)-5,7-dimethylquinazolin-4(3H)-one] as the molecule, how does the “Inhibition of IL-6 expression” value (hIL-6 mRNA) read?
The value was “Active”.

What about the melting point of the same molecule?
The melting point was 181 to 182 °C.

Which “Inhibition of IL-6 expression” value (hIL-6 mRNA) does the source give for `COc1cc(OC)c2c(=O)[nH]c(-c3cc(C)c(OCCN4CCC4)c(C)c3)nc2c1` [2-(4-(2-(Azetidin-1-yl)ethoxy)-3,5-dimethylphenyl)-5,7-dimethoxyquinazolin-4(3H)-one] here?
Its value is “Active”.

And the melting point?
Its melting point is 204 to 205 °C.

With `COc1cc(OC)c2c(=O)[nH]c(-c3cc(C)c(OCCN4CC(NC(C)=O)C4)c(C)c3)nc2c1` [N-(1-(2-(4-(5,7-Dimethoxy-4-oxo-3,4-dihydroquinazolin-2-yl)-2,6-dimethylphenoxy)ethyl)azetidin-3-yl)acetamide] as the molecule, how does the “Inhibition of IL-6 expression” value (hIL-6 mRNA) read?
The value was “Active”.

And the melting point?
Its melting point is 111.8 to 113.6 °C.

Which “Inhibition of IL-6 expression” value (hIL-6 mRNA) does the source give for `COc1cc(OC)c2c(=O)[nH]c(-c3ccc(N4CCN(CCO)CC4)cc3)nc2c1` [2-(4-(4-(2-hydroxyethyl)piperazin-1-yl)phenyl)-5,7-dimethoxyquinazolin-4(3H)-one] here?
The value was “Active”.

What about the “Inhibition of VCAM-1 expression” value (VCAM-1 mRNA) of the same molecule?
Its value is “Active”.

With `COc1cc(OC)c2c(=O)[nH]c(-c3ccc(N4CCNCC4)cc3)nc2c1` [5,7-Dimethoxy-2-(4-(piperazin-1-yl)phenyl)quinazolin-4(3H)-one] as the molecule, how does the “Inhibition of IL-6 expression” value (hIL-6 mRNA) read?
The value was “Active”.

And the “Inhibition of VCAM-1 expression” value (VCAM-1 mRNA)?
Its value is “Active”.

What does the source list for `Cc1cc(-c2nc3cc(OC(C)C)cc(OC(C)C)c3c(=O)[nH]2)cc(C)c1OCCN1CCCC1` [2-(3,5-Dimethyl-4-(2-(pyrrolidin-1-yl)ethoxy)phenyl)-5,7-diisopropoxyquinazolin-4(3H)-one]?
Inhibition of IL-6 expression (hIL-6 mRNA): Active; melting point: 65 to 68 °C

For `COc1cc(OC)c2c(=O)[nH]c(-c3cc(C)c(OCCN4Cc5ccccc5C4)c(C)c3)nc2c1` [2-(4-(2-(Isoindolin-2-yl)ethoxy)-3,5-dimethylphenyl)-5,7-dimethoxyquinazolin-4(3H)-one], which “Inhibition of IL-6 expression” value (hIL-6 mRNA) is on record?
Its value is “Active”.

And the “Inhibition of VCAM-1 expression” value (VCAM-1 mRNA)?
The value was “Active”.

Which “Inhibition of IL-6 expression” value (hIL-6 mRNA) does the source give for `COc1cc(OC)c2c(=O)[nH]c(-c3ccc(N4CCN(C(C)C)CC4)cc3)nc2c1` [2-(4-(4-Isopropylpiperazin-1-yl)phenyl)-5,7-dimethoxyquinazolin-4(3H)-one] here?
Its value is “Active”.

And the “Inhibition of VCAM-1 expression” value (VCAM-1 mRNA)?
Its value is “Active”.

For `Cc1cc(-c2nc3cc(F)cc(F)c3c(=O)[nH]2)cc(C)c1OCCN1CCCC1` [2-(3,5-Dimethyl-4-(2-(pyrrolidin-1-yl)ethoxy)phenyl)-5,7-difluoroquinazolin-4(3H)-one], which “Inhibition of IL-6 expression” value (hIL-6 mRNA) is on record?
The value was “Active”.

What about the “Inhibition of VCAM-1 expression” value (VCAM-1 mRNA) of the same molecule?
The value was “Active”.

Which “Inhibition of IL-6 expression” value (hIL-6 mRNA) does the source give for `COc1cc(OC)c2c(=O)[nH]c(-c3ccc(N4CCC(O)CC4)cc3)nc2n1` [2-(4-(4-Hydroxypiperidin-1-yl)phenyl)-5,7-dimethoxypyrido[2,3-d]pyrimidin-4(3H)-one] here?
Its value is “Active”.

And the melting point?
The melting point was 284 to 286 °C.

For `COc1cccc2c(=O)[nH]c(-c3ccc(N4CCN(C(C)C)CC4)cc3)nc12` [2-(4-(4-Isopropylpiperazin-1-yl)phenyl)-8-methoxyquinazolin-4(3H)-one], which “Inhibition of IL-6 expression” value (hIL-6 mRNA) is on record?
The value was “Active”.

What about the “Inhibition of VCAM-1 expression” value (VCAM-1 mRNA) of the same molecule?
Its value is “Active”.

With `COc1cc(OC)c2c(=O)[nH]c(-c3ccc(N4CCN(C(=O)c5ccc(F)cc5)CC4)cc3)nc2c1` [2-(4-(4-(4-Fluorobenzoyl)piperazin-1-yl)phenyl)-5,7-dimethoxyquinazolin-4(3H)-one] as the molecule, how does the “Inhibition of IL-6 expression” value (hIL-6 mRNA) read?
The value was “Active”.

What about the “Inhibition of VCAM-1 expression” value (VCAM-1 mRNA) of the same molecule?
The value was “Active”.

Which “Inhibition of IL-6 expression” value (hIL-6 mRNA) does the source give for `COc1cc(OC)c2c(=O)[nH]c(-c3ccc(N4CCC(NC(C)=O)CC4)cc3)nc2c1` [N-(1-(4-(5,7-Dimethoxy-4-oxo-3,4-dihydroquinazolin-2-yl)phenyl)piperidin-4-yl)acetamide] here?
The value was “Active”.

What about the “Inhibition of VCAM-1 expression” value (VCAM-1 mRNA) of the same molecule?
Its value is “Active”.

For `COc1cc(OC)c2c(=O)[nH]c(-c3cc(C)c(OCCN4CCCC4)c(C)c3)nc2c1` [2-(3,5-dimethyl-4-(2-(pyrrolidin-1-yl)ethoxy)phenyl)-5,7-dimethoxyquinazolin-4(3H)-one], which “Inhibition of IL-6 expression” value (hIL-6 mRNA) is on record?
The value was “Active”.

And the “Inhibition of VCAM-1 expression” value (VCAM-1 mRNA)?
Its value is “Active”.

What does the source list for `CCCCN1CCN(c2ccc(-c3nc4cc(OC)cc(OC)c4c(=O)[nH]3)cc2)CC1` [2-(4-(4-butylpiperazin-1-yl)phenyl)-5,7-dimethoxyquinazolin-4(3H)-one]?
Inhibition of IL-6 expression (hIL-6 mRNA): Active; Inhibition of VCAM-1 expression (VCAM-1 mRNA): Active
